Experiment [1] in a line: Antitumor activity against mouse EAC cells by trypan blue exclusion assay. The following applies: for IC25 / IC50: Mus musculus, Ehrlich. Format: functional, cell-based, Ehrlich.
Experiment [2] deals with Ehrlich. The experiment in a line: Ratio of 5-fluorouracil IC25 to compound IC25 for mouse EAC cells. Format: functional.
Experiment [3] concerns Ehrlich. The experiment in a line: Ratio of 5-fluorouracil IC100 to compound IC100 for mouse EAC cells. The format is functional.
For experiment [4], the system named is Ehrlich. Briefly: Ratio of 5-fluorouracil IC50 to compound IC50 for mouse EAC cells. Format: functional.

The term IC25 denotes the concentration at which the effect reaches the 25% level. Low values mean greater potency, high ones weaker potency. In general, IC50 refers to the concentration needed to halve the response being measured.

SMILES strings stand for the structures.

With `O=c1oc2ccccc2c2nc(/C=C/c3ccccc3)cc(-c3ccccc3)c12`, in experiment [1], the IC100 was determined as 0.27 µM; the IC25 turned out to be 60 nM; the midpoint of inhibition, the IC50, lay at 130 nM. Besides, in experiment [2], the Ratio is on record as 3. Further, the Ratio in experiment [3] stood at 3. Further, the “Ratio IC50” value in experiment [4] was 3.

For `Nc1c(C(c2ccc(Cl)cc2)c2c(N)c3ccccc3oc2=O)c(=O)oc2ccccc12`, in experiment [1], the IC100 worked out at 0.25 µM, the IC25 amounted to 60 nM and the IC50 came to 120 nM. Further, in experiment [2], the Ratio worked out at 3. For the same compound, the Ratio in experiment [3] is given as 3. In experiment [4], the “Ratio IC50” value came to 3.

`O=c1oc2ccccc2c2nc3c(c(-c4ccccc4)c12)CCC/C3=C\c1ccccc1`: in experiment [1], the IC100 is 0.24 µM; the 25% effect level (IC25) was put at 60 nM; the midpoint of inhibition, the IC50, lay at 120 nM. Besides, the Ratio in experiment [2] is 3. For the same compound, the Ratio in experiment [3] is recorded as 3. For the same compound, the “Ratio IC50” value in experiment [4] was 3.

As for `O=C1c2ccccc2-c2nc3c(c(-c4ccccc4)c21)c(=O)oc1ccccc13`, in experiment [1], the IC100 was determined as 0.27 µM, the IC25 was determined as 60 nM and the IC50 was 130 nM. In addition, the Ratio in experiment [2] is on record as 3. The Ratio in experiment [3] turned out to be 3. Also, in experiment [4], the “Ratio IC50” value stood at 3.

In experiment [1], `O=c1oc2ccccc2c2nc(-c3ccccc3)cc(-c3ccc([N+](=O)[O-])cc3)c12` showed an IC100 of 0.25 µM, an IC25 of 60 nM and an IC50 of 120 nM. Besides, the Ratio in experiment [2] is listed as 3. In addition, the Ratio in experiment [3] was 3. In addition, in experiment [4], the “Ratio IC50” value is 3.

In experiment [1], `O=c1[nH]cc(F)c(=O)[nH]1` [FLUOROURACIL] came in with an IC100 of 0.77 µM, an IC25 of 190 nM and an IC50 of 380 nM.

Source of the values: ChEMBL document CHEMBL2424570, “New synthetic approach to coumarino[4,3-b]pyridine systems and potential cytotoxic evaluation” (Med Chem Res, 2013).
